Patent publication US4824955A, “Selenium oxy chloride-pyridine or bipyridine complexes” (Nippon Kayaku Kabushiki Kaisha, priority 1985, dated 1989)
Where “and” joins values, the source holds several entries; their conditions need not be identical. Identical values can stand only once. Like-named read-outs stand apart in the source and are kept apart here.

Legend:
Enrlich carcinoma = experiment: Antineoplastic activity against Enrlich carcinoma (life prolongation rate); assay type: in vivo, 5-week-old ICR mice (male); details: for response vs control in vivo at 16 mg/kg: Mus musculus, ip, 1440 h, read-out: Life prolongation rate (T/C %)
Description: Approximately 10^6 cells/0.2 ml of Enrlich carcinoma were inoculated into the abdominal cavity of each of the 5-week-old ICR mice (male) used for the test, and the test compounds were administered intraperitoneally to the mice of the treated group once a day for a period of 7 days, starting from the day after said inoculation. The mice of the control group was administered with a saline solution in the same way. Observation of the animals of both groups was continued for 60 days after the administration, and the life prolongation rate (T/C%, T/C×100) was determined from the average duration (days) of life of the mice of the treated group (T) and that of the mice of the control group (C).

[1] = intraperitoneal, once a day, 7 days, mice
[2] = tested on: Salmonella typhimurium TA-98; experiment: Antimutagenic activity, Ames method, against mutagenic action of benzpyrene; assay type: cell-based; details: with B(α)P and S-9 mix
Description: The antimutagenic activity was examined according to the Ames method by using Salmonella typhimurium TA-98 as test bacterium and Benzo(α)pyrene (B(α)P) as (TA-98) mutagen.
To a solution of 5 μg of B(α)P and a proper amount of a compound of this invention in 0.1 ml of DMSO were added 0.5 ml of S-9 mix and 0.1 ml of a TA-98 suspension, and the mixture was subjected to preincubation at 37° C. for 20 minutes.
This preincubated mixture was further added with 2 ml of soft agar, and after sufficient mixing, the mixture was uniformly spread on a gluclose minimum agar medium plate and incubated at 37° C. for 48 hours. Thereafter, the number of the colonies produced by reverse mutation was counted.
The number of the colonies existing in the medium containing neither B(α)P nor the compound of this invention was given as background.
The antimutagenic activity was determined as a mutation inhibition rate from the following formula: [formula]

in vivo = details: mouse, ip, LD50, intraperitoneal, once a day, 7 days, mice
[3] = 2.0 mg/kg/day, intraperitoneal, once a day, 7 days
[4] = 4.0 mg/kg/day, intraperitoneal, once a day, 7 days
[5] = 8.0 mg/kg/day, intraperitoneal, once a day, 7 days

c1ccncc1 [Compound 2-1, Tetrabromoselenium-pyridine (1:2) complex]
Life prolongation rate (T/C %) (Enrlich carcinoma; mouse, in vivo): 185% and 171% and 222% and 146% | LD50 [1]: > 16 mg/kg/day × 7

Cn1cnc2ccccc21 [Compound 1-40, Selenium oxychloride-N-methylbenzimidazole (1:1) complex]
Life prolongation rate (T/C %) (Enrlich carcinoma; [3]): 214% | Life prolongation rate (T/C %) (Enrlich carcinoma; [4]): 230% | Life prolongation rate (T/C %) (Enrlich carcinoma; [5]): 243% | response vs control in vivo at 16 mg/kg (Enrlich carcinoma; intraperitoneal, (Note 2) administered for 2 days): 123% | LD50 [1]: 8-16 mg/kg/day × 7

c1ccc(-c2ccccn2)nc1 [Compound 1-41, Selenium oxychloride-2,2'-dipyridyl (1:1) complex]
Life prolongation rate (T/C %) (Enrlich carcinoma; [3]): 230% | Life prolongation rate (T/C %) (Enrlich carcinoma; [4]): 237% | Life prolongation rate (T/C %) (Enrlich carcinoma; [5]): 312% | Inhibition rate (mutation inhibition rate) ([2]; 0.5 μg/plate): 22.6 | Number of colonies ([2]; 0.5 μg/plate): 238 | Inhibition rate (mutation inhibition rate) ([2]; 1 μg/plate): 24.2 | Number of colonies ([2]; 1 μg/plate): 234 | Inhibition rate (mutation inhibition rate) ([2]; 5 μg/plate): 33.6 | Number of colonies ([2]; 5 μg/plate): 209 | Inhibition rate (mutation inhibition rate) ([2]; 10 μg/plate): 56.2 | Number of colonies ([2]; 10 μg/plate): 149 | Inhibition rate (mutation inhibition rate) ([2]; 50 μg/plate): 67.5 | Number of colonies ([2]; 50 μg/plate): 119 | Inhibition rate (mutation inhibition rate) ([2]; 100 μg/plate): 76.2 | Number of colonies ([2]; 100 μg/plate): 96 | Inhibition rate (mutation inhibition rate) ([2]; 500 μg/plate): 100 | Number of colonies ([2]; 500 μg/plate): 16 | LD50 (in vivo): 8 to 16 mg/kg

c1ccc(-c2ccccn2)nc1 [Compound 2-13, Tetrachloroselenium-2,2'-dipyridinyl (1:2) complex]
Life prolongation rate (T/C %) (Enrlich carcinoma; [3]): 152% | Life prolongation rate (T/C %) (Enrlich carcinoma; [4]): 180% | Life prolongation rate (T/C %) (Enrlich carcinoma; [5]): 185% | response vs control in vivo at 16 mg/kg (Enrlich carcinoma; intraperitoneal, (Note 5) administered for 6 days): 97% | LD50 [1]: > 16 mg/kg/day × 7
